≈ marks a conversion by molar mass, not a printed value. Like-named read-outs stand apart in the source and are kept apart here.
Tests used:
[1] = test system: Immortalized human meibomian gland epithelial cells (HMGECs); assay: HMGEC lysosome and neutral lipid accumulation, differentiation and proliferation; assay type: cell-based
Experimental: EXAMPLE. Immortalized human meibomian gland epithelial cells (HMGECs) are cultured in the presence of vehicle or test compound, such as Soli (2, 10, or 20 μg/ml) for 1 to 7 days under proliferating (keratinocyte serum-free medium; KSFM) or differentiating (DMEM/F12 plus 10% fetal bovine serum) conditions. A positive control (epidermal growth factor and bovine pituitary extract for proliferation; Azi for differentiation) and a negative control (media only) are included with the experiments. Additional details are described in JAMA Ophthalmol 132(2): 226-228 (Feb. 1, 2014) and Current Eye Research, 1-6 (2017), each of which is incorporated herein by reference.
HMGECs are evaluated for cell number, neutral lipid content (LipidTox) and lysosome accumulation (LysoTracker). […] Strong lysosomal effects are observed with the 10 μg/ml dose of Soli (relative stimulation=30), on the first day of dosing, and those effects are statistically different (p<0.01) from the control group (relative stimulation=13). In contrast, the 10 μg/m1Azi dose is not statistically different from the control group (relative stimulation=18) until day 3. […] Compounds described herein, such a Soli, affect lysosome and lipid accumulation and differentiation of HMGECs. The effect of Soli on lysosome appearance is faster than that of Azi.

[2] = test system: phospholipase; assay: Phospholipase inhibition in other cell lines; assay type: cell-based
[3] = test system: phagocytized L. monocytogenes; assay type: cell-based
[4] = test system: CXCL8; assay: LPS-induced CXCL8 (IL-8) production in PMA-differentiated U937 cells (ELISA); assay type: cell-based, human
Experimental: EXAMPLE. […] Cells. The human monocytic cell line U937 was obtained from the American Type Culture Collection (ATCC, Rockville, Md.). PBMCs from COPD patients were obtained from Brompton hospital and separated by AccuSPIN (Sigma-Aldrich). […] U937 cells were differentiated into adherent macrophage-like morphology by exposure to PMA (50 ng/ml) for 48 h in complete growth medium. Cell viability was assessed microscopically by trypan blue staining. Cell toxicity was determined by MTT assay as needed. This study was approved by the ethics committee of the Royal Brompton Hospitals, and all subjects gave written informed consent. Cytokine ELISA. TNFα and IL-8 concentrations in the supernatant of cell cultures were determined by sandwich ELISA according to the manufacturer's instructions (R&D Systems Europe, Abingdon, UK). Statistical analysis. The results were expressed as the mean±SEM. Comparisons of data in two groups were performed using the Student's t test or the Wilcoxon signed rank test. Multiple comparisons were made by one-way ANOVA with post hoc test (Dunnett's) as appropriate. The difference was considered significant at p<0.05. […] Anti-inflammatory effects of solithromycin in U937 cells.

[5] = test system: MMP9; assay: MMP9 activity in PMA-stimulated U937 cells (gelatin zymography); assay type: cell-based, human; details: PMA stimulation
Experimental: EXAMPLE. […] Cells. The human monocytic cell line U937 was obtained from the American Type Culture Collection (ATCC, Rockville, Md.). PBMCs from COPD patients were obtained from Brompton hospital and separated by AccuSPIN (Sigma-Aldrich). […] U937 cells were differentiated into adherent macrophage-like morphology by exposure to PMA (50 ng/ml) for 48 h in complete growth medium. Cell viability was assessed microscopically by trypan blue staining. Cell toxicity was determined by MTT assay as needed. This study was approved by the ethics committee of the Royal Brompton Hospitals, and all subjects gave written informed consent. Zymography. MMP9 enzyme activity was measured by gelatin zymography. […] After electrophoresis, gels were incubated and rinsed with Novex® zymogram renaturing buffer (Invitrogen) for 30 min at room temperature. The gels were then rinsed in Novex® zymogram developing buffer (Invitrogen) for 30 min at room temperature prior to overnight incubation in the developing buffer at 37° C. After incubation, the gels were stained using a Colloidal Blue Staining Kit (Invitrogen) to visualize the zymogen bands. Statistical analysis. The results were expressed as the mean±SEM. Comparisons of data in two groups were performed using the Student's t test or the Wilcoxon signed rank test. Multiple comparisons were made by one-way ANOVA with post hoc test (Dunnett's) as appropriate. The difference was considered significant at p<0.05.

[6] = test system: pathogenic bacteria; assay type: cell-based
[7] = test system: S. epidermidis; assay: MIC against S. epidermidis (30 species); assay type: cell-based
[8] = test system: Haemophilus influenzae; assay: MIC against Haemophilus influenzae; assay type: cell-based
[9] = test system: Legionella pneumophila; assay type: cell-based
[10] = test system: Mycoplasma pneumoniae; assay: MIC against Mycoplasma pneumoniae; assay type: cell-based
[11] = test system: Peptostreptococcus spp.; assay: MIC against Peptostreptococcus spp.; assay type: cell-based; details: N 10
[12] = test system: Streptococcus pyogenes; assay: MIC against Streptococcus pyogenes; assay type: cell-based
[13] = Streptococcus pyogenes (a), N 407

CC[C@H]1OC(=O)[C@@](C)(F)C(=O)[C@H](C)[C@@H](O[C@@H]2O[C@H](C)C[C@H](N(C)C)[C@H]2O)[C@](C)(OC)C[C@@H](C)C(=O)[C@H](C)[C@H]2N(CCCCn3cc(-c4cccc(N)c4)nn3)C(=O)O[C@]12C [Solithromycin, solithromycin] was tested, and the “lysosomal effects, relative stimulation” value ([1]; 10 μg/ml dose, first day of dosing, LysoTracker) was 30, the “accumulation of neutral lipids and lysosomes in HMGECs” value ([1]; 2, 10 or 20 μg/ml, 1 to 7 days) was “rapid and dose-dependent increase” and the “proliferation of HMGECs” value ([1]; 7-day dosing period) was “does not cause unwanted proliferation”. The “reversibility of phospholipase inhibition” value ([2]; after dosing is stopped) was “rapidly reversible”, the IC50 ([2]; other cell lines, read-out: IC50 for phospholipase inhibition) was 100 µM and the “activity against phagocytized bacteria, fold greater” value [3] was 50-100 fold. For the same molecule, the “potency relative to azithromycin” value ([3]; phagocytized L. monocytogenes) was 50 fold, the IC50 ([4]; LPS, PMA-differentiated U937 cells, read-out: IC50 on CXCL8 release) was 78.2 ± 9.5 µM and the “inhibition of CXCL8 (IL-8) production (in words)” value ([4]; solithromycin and telithromycin at 100 μM, clarithromycin at 333 μM) was “significantly inhibited”. The IC50 [5] was 14.9 ± 3.1 µM, the “activity against Azi resistant strains” value [6] was “active against all Azi resistant strains tested” and the “potency relative to Azi” value [6] was 8-16 fold. The “activity relative to conventional macrolides” value ([6]; greater activity) was 10 fold, the “intracellular activity relative to Azi” value ([6]; intracellular) was 10 fold and the “I = intermediate susceptibility” value [7] was 3%. The MIC50 [7] was 15 ng/mL (≈ 17.8 nM), the MIC90 [7] was 32000 ng/mL (≈ 37900 nM) and the “NS = not susceptible” value [7] was 17%. The “S = susceptible” value [7] was 80%, the MIC90 ([8]; Haemophilus influenzae (100 strains)) was 2000 ng/mL (≈ 2370 nM) and the MIC50 ([8]; Haemophilus influenzae, N 100) was 1000 ng/mL (≈ 1180 nM). For the same molecule, the MIC90 ([8]; Haemophilus influenzae, N 100) was 2000 ng/mL (≈ 2370 nM), the “MIC Range” value ([8]; Haemophilus influenzae, N 100) was 120 to 4000 ng/mL and the MIC90 ([9]; Legionella pneumophila (30 strains)) was at most 15 ng/mL. For the same molecule, the MIC50 ([9]; Legionella pneumophila, N 30) was at most 15 ng/mL, the MIC90 ([9]; Legionella pneumophila, N 30) was at most 15 ng/mL and the “MIC Range” value ([9]; Legionella pneumophila, N 30) was at most 15 ng/mL. It also gave an MIC90 ([10]; Mycoplasma pneumoniae (38 strains)) of 0.125 ng/mL (≈ 0.148 nM), an MIC50 ([10]; Mycoplasma pneumoniae, N 38) of 0.032 ng/mL (≈ 0.0379 nM) and an MIC90 ([10]; Mycoplasma pneumoniae, N 38) of 0.125 ng/mL (≈ 0.148 nM). The “MIC Range” value ([10]; Mycoplasma pneumoniae, N 38) was at most 6.3e-05 to 500 ng/mL, the MIC50 [11] was 60 ng/mL (≈ 71 nM) and the MIC90 [11] was 250 ng/mL (≈ 296 nM). For the same molecule, the “MIC Range” value [11] was ≤0.03-0.25^ μg/mL, the MIC90 ([12]; Streptococcus Pyogenes (100 strains)) was 30 ng/mL (≈ 35.5 nM) and the MIC50 [12, 13] was at most 30 ng/mL. For the same molecule, the MIC90 [12, 13] was at most 30 ng/mL, the “MIC Range” value [12, 13] was ≤0.03-0.5 ^ μg/mL and the MIC50 ([12]; Streptococcus pyogenes, N 407) was at most 30 ng/mL. For the same molecule, the MIC90 ([12]; Streptococcus pyogenes, N 407) was at most 30 ng/mL and the “MIC Range” value ([12]; Streptococcus pyogenes, N 407) was ≤0.03-0.5 ^ μg/mL.

From patent US20210137961A1, “Compositions and Methods for Treating Dry Eye Diseases” (priority 2017, published 2021)
